Consider 36 compounds from patent US10457655B2, “Compounds and compositions for inhibition of FASN” (FORMA Therapeutics, Inc., priority 2013, dated 2019).

A word on the IC50: it is the concentration at which inhibition is half-maximal. Low readings indicate greater potency in that assay, high ones weaker potency in that assay.

The target of one experiment is FASN enzyme (Homo sapiens, UniProt P49327). Nature of the experiment: Enzymatic Assay for FASN Inhibitors. The class given is biochemical.
FASN enzyme, sequence (P49327 whole entry): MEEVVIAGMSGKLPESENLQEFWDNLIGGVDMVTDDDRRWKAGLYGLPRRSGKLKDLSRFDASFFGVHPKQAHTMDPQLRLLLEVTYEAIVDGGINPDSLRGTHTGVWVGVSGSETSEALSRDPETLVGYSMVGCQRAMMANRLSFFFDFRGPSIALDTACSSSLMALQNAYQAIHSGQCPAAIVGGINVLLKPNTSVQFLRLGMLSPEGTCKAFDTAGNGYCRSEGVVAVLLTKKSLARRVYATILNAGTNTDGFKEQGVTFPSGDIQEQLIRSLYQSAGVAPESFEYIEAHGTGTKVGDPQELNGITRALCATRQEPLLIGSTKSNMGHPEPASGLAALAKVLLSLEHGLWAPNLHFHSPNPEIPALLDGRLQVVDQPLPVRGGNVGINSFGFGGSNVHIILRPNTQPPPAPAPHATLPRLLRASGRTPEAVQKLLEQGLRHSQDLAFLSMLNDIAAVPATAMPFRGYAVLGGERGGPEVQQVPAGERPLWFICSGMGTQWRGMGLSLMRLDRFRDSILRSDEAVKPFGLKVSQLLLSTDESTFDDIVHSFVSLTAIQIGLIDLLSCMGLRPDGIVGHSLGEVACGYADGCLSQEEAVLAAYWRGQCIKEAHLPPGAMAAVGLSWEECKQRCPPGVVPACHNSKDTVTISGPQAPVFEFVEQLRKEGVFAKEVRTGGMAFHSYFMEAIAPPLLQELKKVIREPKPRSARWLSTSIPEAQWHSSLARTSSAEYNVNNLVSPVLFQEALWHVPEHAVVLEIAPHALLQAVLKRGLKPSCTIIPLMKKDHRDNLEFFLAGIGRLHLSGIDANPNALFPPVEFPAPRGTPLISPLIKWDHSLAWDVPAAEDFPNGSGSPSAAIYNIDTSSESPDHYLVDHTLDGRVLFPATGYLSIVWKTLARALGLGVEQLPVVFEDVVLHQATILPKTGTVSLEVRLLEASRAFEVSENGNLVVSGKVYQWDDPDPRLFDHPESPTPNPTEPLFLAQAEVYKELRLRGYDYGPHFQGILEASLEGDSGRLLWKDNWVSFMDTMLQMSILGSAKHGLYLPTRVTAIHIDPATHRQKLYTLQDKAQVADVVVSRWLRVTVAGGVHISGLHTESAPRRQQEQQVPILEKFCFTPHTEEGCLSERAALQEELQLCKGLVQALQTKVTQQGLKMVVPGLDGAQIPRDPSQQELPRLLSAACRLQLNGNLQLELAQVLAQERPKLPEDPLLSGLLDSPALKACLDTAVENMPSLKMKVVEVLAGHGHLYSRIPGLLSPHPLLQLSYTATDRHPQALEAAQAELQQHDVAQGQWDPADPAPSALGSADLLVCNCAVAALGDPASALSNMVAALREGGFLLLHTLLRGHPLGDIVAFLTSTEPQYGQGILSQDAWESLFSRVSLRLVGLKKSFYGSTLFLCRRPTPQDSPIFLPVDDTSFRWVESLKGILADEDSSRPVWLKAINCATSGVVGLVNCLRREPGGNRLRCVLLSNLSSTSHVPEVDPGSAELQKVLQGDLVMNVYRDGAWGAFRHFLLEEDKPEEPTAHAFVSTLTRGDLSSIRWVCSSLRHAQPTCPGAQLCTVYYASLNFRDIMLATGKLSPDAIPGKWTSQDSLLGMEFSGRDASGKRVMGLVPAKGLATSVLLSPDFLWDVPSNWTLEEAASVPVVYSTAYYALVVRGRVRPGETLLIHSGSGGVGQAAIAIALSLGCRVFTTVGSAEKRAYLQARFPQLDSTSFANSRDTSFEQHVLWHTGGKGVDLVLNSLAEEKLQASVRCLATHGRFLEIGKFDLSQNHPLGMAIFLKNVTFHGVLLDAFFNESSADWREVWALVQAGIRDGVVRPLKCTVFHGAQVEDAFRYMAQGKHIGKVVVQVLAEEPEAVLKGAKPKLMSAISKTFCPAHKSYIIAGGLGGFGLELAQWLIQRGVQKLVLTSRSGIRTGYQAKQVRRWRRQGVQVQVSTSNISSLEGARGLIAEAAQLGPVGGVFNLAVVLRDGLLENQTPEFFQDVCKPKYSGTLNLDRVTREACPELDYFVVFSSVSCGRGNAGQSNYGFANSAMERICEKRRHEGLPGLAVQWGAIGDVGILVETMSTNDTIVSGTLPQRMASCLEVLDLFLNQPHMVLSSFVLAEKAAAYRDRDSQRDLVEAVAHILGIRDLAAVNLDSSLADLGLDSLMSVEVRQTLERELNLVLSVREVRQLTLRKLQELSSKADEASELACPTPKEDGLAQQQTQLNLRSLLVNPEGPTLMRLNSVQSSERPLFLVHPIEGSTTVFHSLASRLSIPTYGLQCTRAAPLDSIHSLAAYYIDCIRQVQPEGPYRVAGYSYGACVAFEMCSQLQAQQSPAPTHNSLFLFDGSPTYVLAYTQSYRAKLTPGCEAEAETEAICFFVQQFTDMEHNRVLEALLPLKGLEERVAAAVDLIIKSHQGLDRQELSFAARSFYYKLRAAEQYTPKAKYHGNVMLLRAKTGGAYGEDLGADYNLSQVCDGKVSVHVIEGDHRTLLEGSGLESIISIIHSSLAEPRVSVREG
Details: not given
A digest of the protocol: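 40 nM FASN preincubated with compound 60 min at 25° C in HEPES pH 7.3 buffer with 0.04% Triton X-100. Then 20 μM acetyl-CoA, 60 μM malonyl-CoA and 100 μM NADPH added for 90 min, quenched with CPM thiol probe; fluorescence 360/530 nm, IC50 by four-parameter fit.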
As to `CNC(=O)COc1cccc(-c2ccc(C(=O)N3CCN(C(=O)C4(O)CC4)CC3)cc2)c1` [2-(3-{4-[4-(1-hydroxycyclopropanecarbonyl)piperazine-1-carbonyl]phenyl}phenoxy)-N-methylacetamide], the IC50 is less than 500 nM. As for `O=C(c1ccc(-c2cccc(N3CCCS3(=O)=O)c2)cc1)N1CCN(C(=O)C2(O)CC2)CC1` [2-(3-{4-[4-(1-hydroxycyclopropanecarbonyl)piperazine-1-carbonyl]phenyl}phenyl)-1λ^6,2-thiazolidine-1,1-dione], the IC50 was less than 500 nM. The compound `CC(C)(C#N)c1cccc(-c2ccc(C(=O)N3CCN(C(=O)C4(O)CC4)CC3)cc2)c1` [2-(3-{4-[4-(1-hydroxycyclopropanecarbonyl)piperazine-1-carbonyl]phenyl}phenyl)-2-methylpropanenitrile] returned an IC50 of less than 500 nM. For the compound `N#CCc1cccc(-c2ccc(C(=O)N3CCN(C(=O)C4(O)CC4)CC3)cc2)c1` [2-(3-{4-[4-(1-hydroxycyclopropanecarbonyl)piperazine-1-carbonyl]phenyl}phenyl)acetonitrile], the 50% inhibitory concentration (IC50) was less than 500 nM.

Consider `N#Cc1ccc2oc(-c3ccc(C(=O)N4CCN(C(=O)C5(O)CC5)CC4)cc3)nc2c1` [2-[4-({4-[(1-hydroxycyclopropyl)carbonyl]piperazin-1-yl}carbonyl)phenyl]-1,3-benzoxazole-5-carbonitrile], for which the concentration for half-maximal inhibition (IC50) was less than 500 nM. The compound `N#Cc1ccc2c(c1)CN(c1ccc(C(=O)N3CCN(C(=O)C4(O)CC4)CC3)cc1)CC2` [2-{4-[4-(1-hydroxycyclopropanecarbonyl)piperazine-1-carbonyl]phenyl}-1,2,3,4-tetrahydroisoquinoline-7-carbonitrile] yielded an IC50 of less than 500 nM.

`O=C(c1ccc(-c2cccc(NS(=O)(=O)CCC(F)(F)F)c2)cc1)N1CCN(C(=O)C2(O)CC2)CC1` [3,3,3-trifluoro-N-(3-{4-[4-(1-hydroxycyclopropanecarbonyl)piperazine-1-carbonyl]phenyl}phenyl)propane-1-sulfonamide]: the IC50 is less than 500 nM. With `O=C(Nc1cccc(-c2ccc(C(=O)N3CCN(C(=O)C4(O)CC4)CC3)cc2)c1)C1CC(F)(F)C1` [3,3-difluoro-N-(3-{4-[4-(1-hydroxycyclopropanecarbonyl)piperazine-1-carbonyl]phenyl}phenyl)cyclobutane-1-carboxamide], the half-maximal inhibitory concentration (IC50) is less than 500 nM. In the case of `Nc1cc(-c2cccc(-c3ccc(C(=O)N4CCN(C(=O)C5(N)CC5)CC4)c(F)c3)c2)no1` [3-(3-{4-[4-(1-aminocyclopropanecarbonyl)piperazine-1-carbonyl]-3-fluorophenyl}phenyl)-1,2-oxazol-5-amine], the IC50 is less than 500 nM. Same read-out and setting: for `O=C(c1ccc(-c2cccc(S(=O)(=O)NC3CC3)c2)cc1Cl)N1CCN(C(=O)C2(O)CC2)CC1` [3-[3-chloro-4-({4-[(1-hydroxycyclopropyl)carbonyl]piperazin-1-yl}carbonyl)phenyl]-N-cyclopropylbenzene-1-sulfonamide] the value was less than 500 nM. The same measure, in the same setting: for `CNC(=O)c1cccc(-c2ccc(C(=O)N3CCN(C(=O)C4(O)CC4)CC3)cc2)c1` [3-{4-[4-(1-hydroxycyclopropanecarbonyl)piperazine-1-carbonyl]phenyl}-N-methylbenzamide] the value was less than 500 nM; for `N#CC1(c2cccc(-c3ccc(C(=O)N4CCN(C(=O)C5(O)CC5)CC4)cc3)c2)CCOCC1` [4-(3-{4-[4-(1-hydroxycyclopropanecarbonyl)piperazine-1-carbonyl]phenyl}phenyl)oxane-4-carbonitrile], less than 500 nM; for `CN1C(=O)Cc2c(-c3ccc(C(=O)N4CCN(C(=O)C5(O)CC5)CC4)cc3)cccc21` [4-{4-[4-(1-hydroxycyclopropanecarbonyl)piperazine-1-carbonyl]phenyl}-1-methyl-2,3-dihydro-1H-indol-2-one], less than 500 nM. Same read-out and setting: for `NC(=O)c1cc2cc(-c3ccc(C(=O)N4CCN(C(=O)C5(O)CC5)CC4)cc3)ccc2[nH]1` [5-[4-({4-[(1-hydroxycyclopropyl)carbonyl]piperazin-1-yl}carbonyl)phenyl]-1H-indole-2-carboxamide] the value was less than 500 nM.

Turning to `Nc1noc2ccc(-c3ccc(C(=O)N4CCN(C(=O)C5(N)CC5)CC4)cc3)cc12` [5-{4-[4-(1-aminocyclopropanecarbonyl)piperazine-1-carbonyl]phenyl}-1,2-benzoxazol-3-amine], the 50% inhibitory concentration (IC50) is less than 500 nM.

For the compound `O=C(c1ccc(-c2cc(Cl)cc3[nH]c(=O)[nH]c23)cc1)N1CCN(C(=O)C2(O)CC2)CC1` [6-chloro-4-{4-[4-(1-hydroxycyclopropanecarbonyl)piperazine-1-carbonyl]phenyl}-2,3-dihydro-1H-1,3-benzodiazol-2-one], the IC50 was less than 500 nM. Still for that read-out and setting: for `N#Cc1ccc2cc(C3CCN(C(=O)N4CCN(C(=O)C5(O)CC5)CC4)CC3)ccc2c1` [6-{1-[4-(1-hydroxycyclopropanecarbonyl)piperazine-1-carbonyl]piperidin-4-yl}naphthalene-2-carbonitrile] the value was less than 500 nM. The same measure, in the same setting: for `Cn1nc(O)c2ccc(-c3ccc(C(=O)N4CCN(C(=O)C5(O)CC5)CC4)cc3)cc21` [6-{4-[4-(1-hydroxycyclopropanecarbonyl)piperazine-1-carbonyl]phenyl}-1-methyl-1H-indazol-3-ol] the value was less than 500 nM. As for `CNC(=O)c1cccc(-c2ccc(C(=O)N3CCN(C(=O)C4(O)CC4)CC3)cc2)n1` [6-{4-[4-(1-hydroxycyclopropanecarbonyl)piperazine-1-carbonyl]phenyl}-N-methylpyridine-2-carboxamide], the IC50 was less than 500 nM. On the same count and under the same terms, for `Cn1cnc2cc(-c3ccc(C(=O)N4CCN(C(=O)C5(CO)CC5)CC4)cc3)ccc21` [(1-{4-[4-(1-methyl-1H-1,3-benzodiazol-5-yl)benzoyl]piperazine-1-carbonyl}cyclopropyl)methanol] the value was less than 500 nM. On the same count and under the same terms, for `Cc1cc2ccccc2n1-c1ccc(C(=O)N2CCN(C(=O)C3(O)CC3)CC2)cc1` [(4-(1-hydroxycyclopropane-1-carbonyl)piperazin-1-yl)(4-(2-methyl-1H-indol-1-yl)phenyl)methanone] the value was less than 500 nM; for `Cc1nn(-c2ccc(C(=O)N3CCN(C(=O)C4(O)CC4)CC3)cc2)c2ccccc12` [(4-(1-hydroxycyclopropane-1-carbonyl)piperazin-1-yl)(4-(3-methyl-1H-indazol-1-yl)phenyl)methanone], less than 500 nM.

`O=C(c1ccc(-c2cccc(NS(=O)(=O)C3CCC3)c2)cc1)N1CCN(C(=O)C2(O)CC2)CC1` [N-(3-{4-[4-(1-hydroxycyclopropanecarbonyl)piperazine-1-carbonyl]phenyl}phenyl)cyclobutanesulfonamide] showed an IC50 of less than 500 nM. Same read-out and setting: for `O=C(Nc1cccc(-c2ccc(C(=O)N3CCN(C(=O)C4(O)CC4)CC3)cc2)c1)C1CCCC1` [N-(3-{4-[4-(1-hydroxycyclopropanecarbonyl)piperazine-1-carbonyl]phenyl}phenyl)cyclopentanecarboxamide] the value was less than 500 nM. The same measure, in the same setting: for `O=C(c1ccc(-c2cccc(NS(=O)(=O)C3CCOCC3)c2)cc1)N1CCN(C(=O)C2(O)CC2)CC1` [N-(3-{4-[4-(1-hydroxycyclopropanecarbonyl)piperazine-1-carbonyl]phenyl}phenyl)oxane-4-sulfonamide] the value was less than 500 nM.

Staying with this experiment, now noted: FASN enzymatic assay; Table 2-2.
Turning to `O=C(c1ccc(-c2ccc(Cl)cc2F)cc1)N1CCN(C(=O)C2(O)CC2)C[C@H]1CO` [1-{[(3S)-4-{[4-(4-chloro-2-fluorophenyl)phenyl]carbonyl}-3-(hydroxymethyl)piperazin-1-yl]carbonyl}cyclopropan-1-ol], the IC50 fell in the range of 500 to 5000 nM. Turning to `CC(C)NC(=O)c1ccc(F)c(-c2ccc(C(=O)N3CCN(C(=O)C4(O)CC4)CC3)cc2)c1` [4-fluoro-3-[4-({4-[(1-hydroxycyclopropyl)carbonyl]piperazin-1-yl}carbonyl)phenyl]-N-(propan-2-yl)benzamide], the IC50 was 500 to 5000 nM. Still for that read-out and setting: for `CNC(=O)c1ccc(F)c(-c2ccc(C(=O)N3CCN(C(=O)C4(O)CC4)CC3)cc2)c1` [4-fluoro-3-[4-({4-[(1-hydroxycyclopropyl)carbonyl]piperazin-1-yl}carbonyl)phenyl]-N-methylbenzamide] the value was 500 to 5000 nM. With `O=C(c1ccc(-c2ccc3oc(=O)[nH]c3c2)cc1)N1CCN(C(=O)C2(O)CC2)CC1` [5-[4-({4-[(1-hydroxycyclopropyl)carbonyl]piperazin-1-yl}carbonyl)phenyl]-2,3-dihydro-1,3-benzoxazol-2-one], the IC50 is 500 to 5000 nM. Regarding `O=C(c1ccc(-c2ccc3[nH]c(=O)oc3c2)cc1)N1CCN(C(=O)C2(O)CC2)CC1` [6-[4-({4-[(1-hydroxycyclopropyl)carbonyl]piperazin-1-yl}carbonyl)phenyl]-2,3-dihydro-1,3-benzoxazol-2-one], the IC50 is 500 to 5000 nM.

The same experiment, now with this note: FASN enzymatic assay; Table 2-3.
In turn, `O=C(CO)N1CCN(C(=O)c2ccc(-c3ccccc3)cc2)CC1` [2-hydroxy-1-{4-[(4-phenylphenyl)carbonyl]piperazin-1-yl}ethan-1-one] had an IC50 not below 5000 nM.

`CC(C)(O)C(=O)N1CCN(C(=O)c2ccc(-c3ccccc3)cc2)CC1` [2-hydroxy-2-methyl-1-{4-[(4-phenylphenyl)carbonyl]piperazin-1-yl}propan-1-one] had an IC50 not below 5000 nM. The same measure, in the same setting: for `COC(C)(C)C(=O)N1CCN(C(=O)c2ccc(-c3ccccc3)cc2)CC1` [2-methoxy-2-methyl-1-{4-[(4-phenylphenyl)carbonyl]piperazin-1-yl}propan-1-one] the value was not below 5000 nM; for `CC(O)(C(=O)N1CCN(C(=O)c2ccc(-c3ccccc3)cc2)CC1)C(F)(F)F` (stereo not drawn) [3,3,3-trifluoro-2-hydroxy-2-methyl-1-{4-[(4-phenylphenyl)carbonyl]piperazin-1-yl}propan-1-one], not below 5000 nM; for `N#Cc1cc(F)ccc1-c1ccc(C(=O)N2CCN(C(=O)C3(O)CC3)CC2)cc1` [5-fluoro-2-[4-({4-[(1-hydroxycyclopropyl)carbonyl]piperazin-1-yl}carbonyl)phenyl]benzonitrile], not below 5000 nM. The compound `C[C@H](O)C(=O)N1CCN(C(=O)c2ccc(-c3ccccc3)cc2)CC1` [(2S)-2-hydroxy-1-{4-[(4-phenylphenyl)carbonyl]piperazin-1-yl}propan-1-one] yielded an IC50 not below 5000 nM.
